These results are taken from patent US20060099283A1, “Leaf juice of plectranthus amboinicus for treating cancer and/or tumor” (priority 2004, published 2006).

Experiment [1] has as its system HepG2. The experiment can be described thus: HepG2 hepatocellular carcinoma cell count after treatment. Format: cell-based. The conditions noted are these: Homo sapiens, 72 h; HepG2, day 3, 50 nM paciltaxel; read-out: inhibiting rate (cell growth).
Protocol: HepG2 and Hep3B cells were cultured in minimum essential medium supplemented with 10% fetal calf serum, 2 mM L-glutamine, 50 IU/mL penicillin, and 50 μg/mL streptomycin.
Cultures were maintained at 37° C. in a humidified atmosphere containing 5% CO2.
(§1) Treatment: In all in vitro experiments, 3% of the leaf juice prepared according to Example 1 was added to the cells after subcultured directly.
Cell count: Total cell counts were made by adding 20 μL of the cell suspension to 20 μL of 0.4% trypan blue, and counted under a phase contrast microscope.
The hepatocellular carcinoma cell lines used in the example are HepG2 and Huh7, and the manipulations of the cell culture and treatment are as described in Example 2. The cells were grouped into a control group (without treatment) and experiment groups treated with 5% of leaf juice, 50 nM paciltaxel, and combining 5% of leaf juice and 50 nM paciltaxel. Each group was repeated six times.
In experiment [2] the test system is Huh7. The experiment can be described thus: Huh7 hepatocellular carcinoma cell count after treatment. The conditions noted are these: Homo sapiens, Huh-7, 72 h; Huh7, day 3, 50 nM paciltaxel; read-out: inhibiting rate (cell growth). Format: cell-based.
Description: Cell lines: The following nine human tumor cell lines of different histologic origins were obtained from commercial cell culture collections unless indicated otherwise: HepG2 (haptocellular carcinoma, liver; provided by Dr. C H Huang, National Health Research Institute, Taipei, Taiwan), Hep3B (haptocellular carcinoma, liver; provided by Dr. C H Huang, National Health Research Institute, Taipei, Taiwan), U937 (myeloid leukemia), K562 (chronic myeloid leukemia, bone marrow), Calu-1 (epidermoid carcinoma, lung; provided by Dr. Y C Kuo, National Institute of Traditional Chinese Medicine, Taipei, Taiwan), TL (trophoblast-like cell line, placenta; provided by Dr. C K Ho, Veteran General Hospital, Taipei, Taiwan), Jurket (human lymphoblastoid T cell line), Bowes (human melanoma cell), and Huh7 (hepatocellular carcinoma/ectoderm).
Cultures were maintained at 37° C. in a humidified atmosphere containing 5% CO2. All cell reagents were obtained from Gibco-Invitrogen Co., Ltd (Grand Island, N.Y. U.S.A.) and HyClone (Logan, Utah, U.S.A.).
as §1
Cell count: Total cell counts were made by adding 20 μL of the cell suspension to 20 μL of 0.4% trypan blue, and counted under a phase contrast microscope. […]

For `CC(=O)O[C@H]1C(=O)[C@@]2(C)[C@H]([C@H](OC(=O)c3ccccc3)[C@]3(O)C[C@H](OC(=O)[C@H](O)[C@@H](NC(=O)c4ccccc4)c4ccccc4)C(C)=C1C3(C)C)[C@]1(OC(C)=O)CO[C@@H]1C[C@@H]2O` [paciltaxel], the inhibition at 0.05 µM came out at 43.8% in experiment [1] and 66.1% in experiment [2].
